What was measured:
[1] = system: THP-1 cells; experiment: Human monocytic THP-1 cell differentiation assay for soluble proteins (THP-1 soluble protein assay); assay type: cell-based; conditions: LPS-stimulated THP-1 cells; quantity, unit and concentration not given
Description: Human Monocytic THP-1 Cell Differentiation Assay For Soluble Proteins (THP-1 Soluble Protein Assay)
Mitogenic stimulation of THP-1 cells cause differentiation into macrophage like cells with concomitant secretion of tumor necrosis factor (TNF-α) and TNF receptor (TNF-R p75/80 and TNF-R p55/60) and Interleukin-8 (IL-8), among other proteins. In addition, non-stimulated THP-1 cells shed both the p75/80 and the […] receptors over time. The release of membrane bound TNF-α and possibly TNF-R p75/80 and TNF-R p55/60, but not IL-8, is mediated by an enzyme called TNF-α converting enzyme or TACE.
THP-1 cells (from ATCC) are a human monocytic cell line which were obtained from the peripheral blood of a person with acute monocytic leukemia. They can be grown in culture and differentiated into macrophage like cells by stimulation with mitogens.
For the assay, THP-1 cells are seeded from an ATCC stock which was previously grown and frozen back at 5 x 10^6/ml/vial. […]
To perform an assay, the THP-1 cells are co-incubated in a 24 well plate with […] of a 24 mg/ml stock of Lipopolysacharide (LPS) (Calbiochem Lot# B13189) at 37°C in 5% CO2 at a concentration of 1.091 x 10^6 cells/ml (1.1 ml/well) for a total of 24 hours. […] Compounds can be evaluated for their effect on basal (non-stimulated) shedding of the receptors by replacing the LPS with […] of THP-1 media. […]
In addition, at the 24 hours timepoint, and the cells for each treatment group are collected by resuspension in 500 µl/well of THP-1 media and transferred into a FACS tube. […] The samples are run on a Becton Dickinson FaxCaliber FLOW cytometry machine and the amount of dye taken up by each cell is measured in the high red wavelength (FL3). […] The percent of live cells is calculated by the number of cells not stained with PI, divided by the total number of cells in the sample. The viability values calculated for the drug treated groups were compared to the viability value calculated for the vehicle treated mitogen stimulated group ("vehicle positive control") to determine the "percent change from control". […]

[2] = target: TACE (Homo sapiens, UniProt P78536); experiment: TACE inhibition test procedure (fluorescent peptidyl substrate); assay type: biochemical
Chain of TACE (P78536 215-824): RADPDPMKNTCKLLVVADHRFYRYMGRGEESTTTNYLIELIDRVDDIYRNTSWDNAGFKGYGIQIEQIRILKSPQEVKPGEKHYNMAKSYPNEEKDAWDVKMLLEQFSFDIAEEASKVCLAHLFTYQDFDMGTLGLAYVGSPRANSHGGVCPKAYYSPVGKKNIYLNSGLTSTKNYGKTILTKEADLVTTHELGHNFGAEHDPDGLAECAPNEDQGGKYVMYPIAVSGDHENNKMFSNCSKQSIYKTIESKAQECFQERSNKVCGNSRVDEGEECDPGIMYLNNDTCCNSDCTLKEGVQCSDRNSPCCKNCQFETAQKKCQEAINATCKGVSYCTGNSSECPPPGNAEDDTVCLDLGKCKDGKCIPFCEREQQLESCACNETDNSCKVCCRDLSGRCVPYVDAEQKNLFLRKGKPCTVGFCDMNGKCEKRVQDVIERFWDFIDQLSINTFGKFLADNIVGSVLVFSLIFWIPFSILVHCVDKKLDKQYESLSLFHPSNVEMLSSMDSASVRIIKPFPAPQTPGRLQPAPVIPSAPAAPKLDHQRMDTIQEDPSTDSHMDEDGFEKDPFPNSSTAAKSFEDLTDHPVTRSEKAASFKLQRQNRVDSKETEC
Procedure: Test Procedure for Measuring TACE Inhibition
Using 96-well black microtiter plates, each well receives a solution composed of 10 µL TACE (final concentration 1µg/mL), 70µL Tris buffer, pH 7.4 containing 10% glycerol (final concentration 10 mM), and 10 µL of test compound solution in DMSO (final concentration 1µM, DMSO concentration <1%) and incubated for 10 minutes at room temperature. The reaction is initiated by addition of a fluorescent peptidyl substrate (final concentration 100 µM) to each well and then shaking on a shaker for 5 sec.
The reaction is read (excitation 340 nm, emission 420 nm) for 10 min. and the increase in fluorescence over time is plotted as a linear line. The slope of the line is calculated and represents the reaction rate.
The linearity of the reaction rate is confirmed (r^2 >0.85). The mean (x±sem) of the control rate is calculated and compared for statistical significance (p<0.05) with drug-treated rates using Dunnett's multiple comparison test. Dose-response relationships can be generate using multiple doses of drug and IC50 values with 95% CI are estimated using linear regression.

CC#CCOc1ccc(S(=O)(=O)N(C)[C@H](C)CS)cc1 [Example 8, 4-But-2-ynyloxy-N-((1R)-2-mercapto-1-methyl-ethyl)-N-methyl-benzenesulfonamide]
THP [1]: 3

CC#CCOc1ccc(S(=O)(=O)N(CCN2CCOCC2)[C@@H](CS)C(N)=O)cc1 [Example 15, (2R)-2-{{[4-(2-Butynyloxy)phenyl]sulfonyl}[2-(4-morpholinyl)ethyl]amino}-3-sulfanylpropanamide]
IC50 [2]: 263 nM
THP [1]: 19

CC#CCOc1ccc(S(=O)(=O)N(CCN2CCOCC2)[C@H](C)CS)cc1 [Example 11, 4-(2-Butynyloxy)-N-[(1R)-1-methyl-2-sulfanylethyl]-N-[2-(4-morpholinyl)ethyl]benzenesulfonamide]
IC50 [2]: 362 nM
THP [1]: 11

Source: patent publication EP1149074B1, “ACETYLENIC SULFONAMIDE THIOL TACE INHIBITORS” (Wyeth Holdings Corporation, priority 1999, dated 2000)
